Laboratory results: patent publication US10294202B2, “Pyrrolidinones as herbicides” (FMC Corporation, priority 2013, dated 2019)

Columns and labels:
Test in all cases: Test A pre-/postemergence herbicide test
pigweed = assay type: in vivo, Amaranthus retroflexus
Source text: (§1) Seeds of plant species selected from bamyardgrass (Echinochloa crus-galli), kochia (Kochia scoparia), ragweed (common ragweed, Ambrosia elatior), ryegrass, Italian (Italian ryegrass, Lolium multiflorum), crabgrass, large (large crabgrass Digitaria sanguinalis), giant foxtail (Setaria faberii), morningglory (Ipomoea spp.), pigweed (Amaranthus retroflexus), velvetleaf (Abutilon theophrasti), wheat (Triticum aestivum), and corn (Zea mays) were planted into a blend of loam soil and sand and treated preemergence with a directed soil spray using test chemicals formulated in a non-phytotoxic solvent mixture which included a surfactant. At the same time, plants selected from these crop and weed species and also blackgrass (Alopecurus myosuroides), and galium (catchweed bedstraw, Galium aparine) were planted in pots containing the same blend of loam soil and sand and treated with postemergence applications of test chemicals formulated in the same manner. Plants ranged in height from 2 to 10 cm and were in the one- to two-leaf stage for the postemergence treatment. Treated plants and untreated controls were maintained in a greenhouse for approximately 10 days, after which time all treated plants were compared to untreated controls and visually evaluated for injury. Plant response ratings, summarized in Table A, are based on a 0 to 100 scale where 0 is no effect and 100 is complete control. A dash (-) response means no test result.

giant foxtail = assay type: in vivo, Setaria faberii
Source text: as §1

corn = assay type: in vivo, Zea mays
Source text: as §1

velvetleaf = assay type: in vivo, Abutilon theophrasti
Source text: as §1

crabgrass, large = assay type: in vivo, Digitaria sanguinalis
Source text: as §1

morningglory = assay type: in vivo, Ipomoea spp.
Source text: as §1

barnyardgrass = assay type: in vivo, Echinochloa crus-galli
Source text: as §1

wheat = assay type: in vivo, Triticum aestivum
Source text: as §1

[1] = Postemergence, 125 g ai/ha, 0 to 100 scale, 0 no effect, 100 complete control
[2] = Postemergence, 500 g ai/ha, 0 to 100 scale (0 no effect, 100 complete control)
[3] = Preemergence, 125 g ai/ha, visual rating on 0 to 100 scale (0 no effect, 100 complete control)
[4] = preemergence, 500 g ai/ha, 0 to 100 scale
[5] = Postemergence, 1000 g ai/ha, 0 to 100 scale (0 no effect, 100 complete control)
[6] = Preemergence, 1000 g ai/ha, visual rating on 0 to 100 scale (0 no effect, 100 complete control), approx. 10 days
[7] = preemergence, 1000 g ai/ha, 0 to 100 scale
[8] = preemergence, 1000 g ai/ha, 0 to 100 scale (0 no effect, 100 complete control)

N#Cc1ccccc1NC(=O)C1C(=O)NCC1c1ccccc1 (racemic) [Compound 86]
Plant response rating, Pigweed (pigweed; [1]): 0
Plant response rating, Pigweed (pigweed; [2]): 0
Pigweed plant response rating (pigweed; [3]): 0
Plant response rating, Pigweed (pigweed; [4]): 0
Plant response rating, Foxtail, Giant (giant foxtail; [1]): 0
Plant response rating, Foxtail, Giant (giant foxtail; [2]): 10
Foxtail, Giant plant response rating (giant foxtail; [3]): 20
Plant response rating, Foxtail, Giant (giant foxtail; [4]): 60
Plant response rating, Corn (corn; [1]): 0
Plant response rating, Corn (corn; [2]): 0
Corn plant response rating (corn; [3]): 0
Plant response rating, Corn (corn; [4]): 20
Plant response rating, Velvetleaf (velvetleaf; [1]): 0
Plant response rating, Velvetleaf (velvetleaf; [2]): 0
Velvetleaf plant response rating (velvetleaf; [3]): 0
Plant response rating, Velvetleaf (velvetleaf; [4]): 0
Plant response rating, Crabgrass, Large (crabgrass, large; [1]): 0
Plant response rating, Crabgrass, Large (crabgrass, large; [2]): 60
Crabgrass, Large plant response rating (crabgrass, large; [3]): 60
Plant response rating, Crabgrass, Large (crabgrass, large; [4]): 80
Plant response rating, Morningglory (morningglory; [1]): 0
Plant response rating, Morningglory (morningglory; [2]): 0
Morningglory plant response rating (morningglory; [3]): 0
Plant response rating, Morningglory (morningglory; [4]): 0
Plant response rating, Barnyardgrass (barnyardgrass; [1]): 0
Plant response rating, Barnyardgrass (barnyardgrass; [2]): 20
Barnyardgrass plant response rating (barnyardgrass; [3]): 0
Plant response rating, Barnyardgrass (barnyardgrass; preemergence, 500 g ai/ha, 0 to 100 scale (0 no effect, 100 complete control)): 40
Plant response rating, Wheat (wheat; [1]): 0
Plant response rating, Wheat (wheat; [2]): 0
Wheat plant response rating (wheat; [3]): 0
Plant response rating, Wheat (wheat; [4]): 0

O=C1NCC(c2ccc(F)c(F)c2)C1C(=O)Nc1cccc(=O)[nH]1 (racemic) [Compound 96]
Plant response rating, Pigweed (pigweed; [5]): 0
Plant response rating, Pigweed (pigweed; [6]): 0
Plant response rating, Foxtail, Giant (giant foxtail; [5]): 0
Plant response rating, Foxtail, Giant (giant foxtail; [6]): 0
Plant response rating, Corn (corn; [5]): 0
Plant response rating, Corn (corn; [6]): 0
Plant response rating, Velvetleaf (velvetleaf; [5]): 0
Plant response rating, Velvetleaf (velvetleaf; [6]): 0
Plant response rating, Crabgrass, Large (crabgrass, large; [5]): 0
Plant response rating, Crabgrass, Large (crabgrass, large; [6]): 0
Plant response rating, Morningglory (morningglory; [5]): 0
Plant response rating, Morningglory (morningglory; [6]): 0
Plant response rating, Barnyardgrass (barnyardgrass; [5]): 0
Plant response rating, Barnyardgrass (barnyardgrass; [6]): 0
Plant response rating, Wheat (wheat; [5]): 0
Plant response rating, Wheat (wheat; [6]): 0

Cn1ccc(C2CNC(=O)C2C(=O)Nc2ccccc2C(F)(F)F)n1 (racemic) [Compound 191]
Plant response rating, Pigweed (pigweed; [5]): 0
Plant response rating, Pigweed (pigweed; [7]): 0
Plant response rating, Foxtail, Giant (giant foxtail; [5]): 0
Plant response rating, Foxtail, Giant (giant foxtail; [7]): 0
Plant response rating, Corn (corn; [5]): 0
Plant response rating, Corn (corn; [7]): 0
Plant response rating, Velvetleaf (velvetleaf; [5]): 0
Plant response rating, Velvetleaf (velvetleaf; [7]): 0
Plant response rating, Crabgrass, Large (crabgrass, large; [5]): 0
Plant response rating, Crabgrass, Large (crabgrass, large; [7]): 0
Plant response rating, Morningglory (morningglory; [5]): 0
Plant response rating, Morningglory (morningglory; [7]): 0
Plant response rating, Barnyardgrass (barnyardgrass; [5]): 0
Plant response rating, Barnyardgrass (barnyardgrass; [8]): 0
Plant response rating, Wheat (wheat; [5]): 0
Plant response rating, Wheat (wheat; [7]): 0

Cn1ccc(C2CNC(=O)C2C(=O)Nc2cccc(F)c2F)n1 (racemic) [Compound 192]
Plant response rating, Pigweed (pigweed; [5]): 0
Plant response rating, Pigweed (pigweed; [7]): 0
Plant response rating, Foxtail, Giant (giant foxtail; [5]): 0
Plant response rating, Foxtail, Giant (giant foxtail; [7]): 0
Plant response rating, Corn (corn; [5]): 0
Plant response rating, Corn (corn; [7]): 0
Plant response rating, Velvetleaf (velvetleaf; [5]): 0
Plant response rating, Velvetleaf (velvetleaf; [7]): 0
Plant response rating, Crabgrass, Large (crabgrass, large; [5]): 0
Plant response rating, Crabgrass, Large (crabgrass, large; [7]): 0
Plant response rating, Morningglory (morningglory; [5]): 0
Plant response rating, Morningglory (morningglory; [7]): 0
Plant response rating, Barnyardgrass (barnyardgrass; [5]): 0
Plant response rating, Barnyardgrass (barnyardgrass; [8]): 0
Plant response rating, Wheat (wheat; [5]): 0
Plant response rating, Wheat (wheat; [7]): 0

Cn1cc(C2CNC(=O)C2C(=O)Nc2cccc(F)c2F)cn1 (racemic) [Compound 253]
Plant response rating, Pigweed (pigweed; [5]): 0
Plant response rating, Pigweed (pigweed; [7]): 0
Plant response rating, Foxtail, Giant (giant foxtail; [5]): 20
Plant response rating, Foxtail, Giant (giant foxtail; [7]): 0
Plant response rating, Corn (corn; [5]): 0
Plant response rating, Corn (corn; [7]): 0
Plant response rating, Velvetleaf (velvetleaf; [5]): 0
Plant response rating, Velvetleaf (velvetleaf; [7]): 0
Plant response rating, Crabgrass, Large (crabgrass, large; [5]): 20
Plant response rating, Crabgrass, Large (crabgrass, large; [7]): 0
Plant response rating, Morningglory (morningglory; [5]): 10
Plant response rating, Morningglory (morningglory; [7]): 0
Plant response rating, Barnyardgrass (barnyardgrass; [5]): 0
Plant response rating, Barnyardgrass (barnyardgrass; [8]): 0
Plant response rating, Wheat (wheat; [5]): 0
Plant response rating, Wheat (wheat; [7]): 0

Cn1cc(C2CNC(=O)C2C(=O)Nc2ccccc2F)cn1 (racemic) [Compound 254]
Plant response rating, Pigweed (pigweed; [5]): 0
Plant response rating, Pigweed (pigweed; [7]): 0
Plant response rating, Foxtail, Giant (giant foxtail; [5]): 0
Plant response rating, Foxtail, Giant (giant foxtail; [7]): 40
Plant response rating, Corn (corn; [5]): 0
Plant response rating, Corn (corn; [7]): 0
Plant response rating, Velvetleaf (velvetleaf; [5]): 0
Plant response rating, Velvetleaf (velvetleaf; [7]): 0
Plant response rating, Crabgrass, Large (crabgrass, large; [5]): 0
Plant response rating, Crabgrass, Large (crabgrass, large; [7]): 70
Plant response rating, Morningglory (morningglory; [5]): 0
Plant response rating, Morningglory (morningglory; [7]): 0
Plant response rating, Barnyardgrass (barnyardgrass; [5]): 0
Plant response rating, Barnyardgrass (barnyardgrass; [8]): 0
Plant response rating, Wheat (wheat; [5]): 0
Plant response rating, Wheat (wheat; [7]): 0

Cn1ccnc1C1CNC(=O)C1C(=O)Nc1ccccc1F (racemic) [Compound 255]
Plant response rating, Pigweed (pigweed; [5]): 0
Plant response rating, Pigweed (pigweed; [7]): 0
Plant response rating, Foxtail, Giant (giant foxtail; [5]): 0
Plant response rating, Foxtail, Giant (giant foxtail; [7]): 70
Plant response rating, Corn (corn; [5]): 0
Plant response rating, Corn (corn; [7]): 0
Plant response rating, Velvetleaf (velvetleaf; [5]): 0
Plant response rating, Velvetleaf (velvetleaf; [7]): 0
Plant response rating, Crabgrass, Large (crabgrass, large; [5]): 0
Plant response rating, Crabgrass, Large (crabgrass, large; [7]): 90
Plant response rating, Morningglory (morningglory; [5]): 0
Plant response rating, Morningglory (morningglory; [7]): 0
Plant response rating, Barnyardgrass (barnyardgrass; [5]): 0
Plant response rating, Barnyardgrass (barnyardgrass; [8]): 60
Plant response rating, Wheat (wheat; [5]): 0
Plant response rating, Wheat (wheat; [7]): 0

O=C1NCC(c2ccc(F)c(F)c2)C1C(=O)N(O)c1ccccc1 (stereo not shown) [Compound 71]
Plant response rating, Pigweed (pigweed; [5]): 0
Plant response rating, Pigweed (pigweed; [6]): 0
Plant response rating, Foxtail, Giant (giant foxtail; [5]): 60
Plant response rating, Foxtail, Giant (giant foxtail; [6]): 60
Plant response rating, Corn (corn; [5]): 0
Plant response rating, Corn (corn; [6]): 0
Plant response rating, Velvetleaf (velvetleaf; [5]): 0
Plant response rating, Velvetleaf (velvetleaf; [6]): 0
Plant response rating, Crabgrass, Large (crabgrass, large; [5]): 80
Plant response rating, Crabgrass, Large (crabgrass, large; [6]): 80
Plant response rating, Barnyardgrass (barnyardgrass; [5]): 50
Plant response rating, Barnyardgrass (barnyardgrass; [6]): 50
Plant response rating, Wheat (wheat; [5]): 0
Plant response rating, Wheat (wheat; [6]): 0
